Patent US20030154517A1, “Efficiency agrobacterium-mediated wheat transformation method” (priority 2001, published 2003)
Several values for one entry are separate records, joined by “and”; a condition that tells them apart may be missing. Identical values can stand only once. Like-named read-outs stand apart in the source and are kept apart here.

What was measured:
[1] = tested on: immature embryos of wheat; assay: Agrobacterium-mediated wheat transformation, nptII (G418/kanamycin) selection (transformation efficiency); assay type: cell-based, Triticum aestivum L
Description: (§1) Immature embryos of wheat (Triticum aestivum L) cv Bobwhite were isolated from the immature caryopsis (wheat spikelets) 12-15 days after pollination, and cultured on CM4C (Table 2) for 1-8 days, most typically for 4-6. The embryos without embryogenic callus were selected for Agrobacterium inoculation.
A disarmed Agrobacterium strain C58 (ABI) harboring a binary vector was used for all the experiments. […] The Agrobacterium cells were resuspended in the inoculation medium and the density was adjusted to an OD660 of 1. […] An equal amount of the Agrobacterium cell suspension was added such that the final concentration of Agrobacterium cells was an OD660 of 0.5. In most experiments, pluronic F68 was added to the inoculation mixture at a final concentration of 0.01%. The ratio between the Agrobacterium and immature embryos (IEs) was about 10 mL: 20-200 IEs. The conditions for inoculation were temperatures from about 23° C.-26° C. with a duration from about 5-60 minutes.
(§2) After the inoculation period, the remaining Agrobacterium cells were removed from the explants by using the in-house vacuum equipment. A piece of sterile Whatman No. 1 filter paper (to fit the size of the petri plate) was placed in each of 60×15 or 60×20 mm petri dishes without additional liquid or agar-supplemented media. Two hundred microliters of sterile water was placed in the middle of the filter paper. After 2-3 minutes, the inoculated immature embryos were placed in the plates. Usually, 20-50 explants are grouped as one stack (about 1 cm in size and 60-80 mg/stack), with 4-5 stacks on each plate. The plates were immediately parafilmed and then co-cultivated in the dark at 24° C.-26° C. for 2-3 days.
For nptII selection, immature embryos were isolated, precultured, inoculated, and co-cultured as previously described. After the 3-day co-culture, embryos were transferred to delay culture (solid CM4C2D) media (CM4C media as in Table 2 with 2 mg/L 2,4-D) with 500 mg/L carbenicillin for 7 days in the dark at 25° C. Selection was done in liquid CM4C media (as in Table 2 without the Phytagel) with 100 mg/L carbenicillin and 20 mg/L G418 on a support for 7 days in the dark followed by 7 days in the light (16 hr photoperiod), at 25° C. The calli were then transferred to liquid MMS0.2C media (as in Table 2 without the gelling agent) with 100 mg/L carbenicillin and 25 mg/L G418 on a support for 2 weeks at 25° C. with a 16 hr photoperiod. After 2 weeks, the calli were transferred to liquid MMSOC media (as in Table 2 without the gelling agent) with 100 mg/L carbenicillin and 25 mg/L G418 on a support for 2 to 4 weeks at 25° C. with a 16 hr photoperiod. Plantlets were transferred to solid MMSOC media with 100 mg/L carbenicillin and 25 mg/L G418 in sundae cups for 1 to 4 weeks at 25° C. with a 16 hr photoperiod.

[2] = tested on: immature embryos of wheat (Triticum aestivum L) cv Bobwhite; assay: Agrobacterium-mediated wheat transformation, glyphosate selection (transformation efficiency); assay type: cell-based
Description: as §1
A disarmed Agrobacterium strain C58 (ABI) harboring a binary vector was used for all the experiments. For the control experiments, cultures of Agrobacterium were initiated from glycerol stocks or from a freshly streaked plate and grown overnight at 26° C.-28° C. with shaking (approximately 150 rpm) to mid-log phase (about OD660=1-1.5) in liquid LB medium, pH 7.0 (Miller, 1972) containing 50 mg/L kanamycin, 50 mg/L streptomycin and spectinomycin, and 25 mg/L chloramphenicol with 200 μM acetosyringone (AS). The Agrobacterium cells were resuspended in the inoculation medium and the density was adjusted to an OD660 of 1. The immature embryos cultured in CM4C medium were transferred into sterile petri plates (16×20 mm) or wells of a 6-well cell culture plate (Costar Corporation, Cambridge, Mass.) containing 10 mL of inoculation medium per petri plate or 5 mL per cell culture cluster plate. An equal amount of the Agrobacterium cell suspension was added such that the final concentration of Agrobacterium cells was an OD660 of 0.5. In most experiments, pluronic F68 was added to the inoculation mixture at a final concentration of 0.01%. The ratio between the Agrobacterium and immature embryos (IEs) was about 10 mL: 20-200 IEs. The conditions for inoculation were temperatures from about 23° C.-26° C. with a duration from about 5-60 minutes.
as §2
After a 3-day co-cultivation, the Agrobacterium-infected precultured immature embryos (PCIE) and embryogenic calli were transferred to CM4C medium (Table 2) supplemented with 500 mg/L carbenicillin and cultured for about seven days. This “delay” medium could also contain glyphosate as discussed in Example 4.
The explants were then transferred to CM4C selection medium with 2 mM glyphosate and 500 mg/L carbenicillin for one week in the dark. All the calli were transferred to MMS0.2C (Table 2) supplemented with 0.1 mM glyphosate and 250 mg/L carbenicillin (first regeneration medium) for an additional two weeks of selection with lighting conditions of about 80 μE. […] All the embryogenic calli were transferred to the second regeneration medium MMS0C (Table 2) supplemented with 500 mg/L carbenicillin and 0.02 mM glyphosate. Aromatic amino acids including I-tryptophan, L-tyrosine, and I-phenylalanine (10^−7 mM/amino acid) were added to this medium to facilitate the selection. These tissues were transferred to fresh media every two weeks. […] Once the root system was established, the plants were transferred to soil and subsequently assayed. […]

[3] = tested on: immature embryos of wheat (Triticum aestivum L) cv Bobwhite; assay: as above; assay type: cell-based; remark: listed apart in the source
[4] = Table 19: compound at 20 μM in second regeneration stage (MMSOC media)
[5] = Table 19 compounds at the concentrations tested (2 and/or 20 μM) in MMSOC
[6] = Table 19: compound at 2 μM in second regeneration stage (MMSOC media)

O=S(=O)([O-])[O-].[Mn+2] [Manganese sulfate]
% TE [1, 4]: 4.2% | Independent transgenic events/explants [1, 4]: 8/189 | effectiveness at increasing TE [1, 5]: not effective

[Cl][Co][Cl] [Cobalt chloride]
% TE [1, 4]: 9.2% | Independent transgenic events/explants [1, 4]: 19/207 | effectiveness at increasing TE [1, 5]: more effective than the negative control

O=C(O)CNCP(=O)(O)O [glyphosate]
TE % ([2]; 0.02 mM glyphosate in preculture and delay culture media (CM4C), per experiment and Total, listed as gly): 3.7% and 3.8% and 4.9% and 8.3% and 2.4% | Efficiency % ([2]; 0.1 mM gly in MMS0.2C first regeneration medium, per experiment and Total, listed as gly): 4.7% and 1.6% and 2.3% and 0.0% and 2.9% | Efficiency % ([2]; Table 9b treatment 1: MMS0.2C + 0.1 Gly, two experiments and Total, listed as Gly): 4.8% and 6.8% and 8.9% | transformation efficiency ([2]; glyphosate at 0.02 mM in preculture and delay culture media): significantly improved | TE % ([2]; selection 7 days in CM4C + 2 mM glyphosate, per experiment and Total): 5.2% and 1.5% and 4.4% and 3.1% and 4% and 2.2% | Efficiency % ([3]; 0.5 mM gly in MMS0.2C first regeneration medium, per experiment and Total, listed as gly): 1.5% and 7.9% and 2.8% and 3.7% and 3.0% | Efficiency % ([3]; 1.0 mM gly in MMS0.2C first regeneration medium, per experiment and Total, listed as gly): 5.0% and 5.3% and 4.2% and 2.5% | Efficiency % ([3]; Table 9b treatment 2: MMS0.2C + 0.5 Gly, two experiments and Total, listed as Gly): 7.7% and 10.7% and 13.7% | TE % ([3]; selection 10 days in CM4C + 2 mM glyphosate, per experiment and Total): 8.6% and 1.25% and 6.4% and 4.8% and 7.3% and 5.3%

O=S(=O)([O-])[O-].[Zn+2] [Zinc sulfate]
Independent transgenic events/explants [1]: 12/219 and 17/107 | effectiveness at increasing TE [1]: not effective | % TE [1, 6]: 5.5% | % TE [1, 4]: 15.9%

Copper acetate
% TE [1]: 23.0% | Independent transgenic events/explants [1]: 53/230

[Cl-].[Cl-].[Mg+2] [Magnesium chloride]
% TE [1]: 3.0% | Independent transgenic events/explants [1]: 7/231 | effectiveness at increasing TE [1]: not effective

[Cl][Cu][Cl] [Copper chloride]
% TE [1, 6]: 16.8% | Independent transgenic events/explants [1, 6]: 37/220 | % TE [1, 4]: 24.2% | Independent transgenic events/explants [1, 4]: 55/227
